{"source": "patent US20230073834A1", "about": "“SUBNORMOTHERMIC MACHINE PERFUSION OF ORGANS WITH CARBON MONOXIDE AND OXYGEN” (priority 2021, published 2023)", "key": {"porcine DCD kidneys": {"test_system": "porcine DCD kidneys", "assay": "Ex vivo pulsatile perfusion of porcine DCD kidneys with CORM-401 in UW solution, then blood reperfusion", "parameters": "species or system large male Landrace pig", "method": "(§1) Methods: To stimulate donation after circulatory death condition, kidneys from large male Landrace pig were retrieved after 1-hour warm ischemia in situ by cross-clamping the renal pedicle. […] Kidneys were then reperfused with normothermic isogeneic porcine blood through oxygenated pulsatile perfusion for 10 hours. Urine was collected, vascular flow was assessed during reperfusion and histopathology was assessed after 10 hours of reperfusion. Sections were stained with H&E (not shown), TUNEL (FIG. 4A) and MSB (FIG. 4B) to quantify ATN (FIG. 4C), Apoptosis (brown spot), Hemorrhage (yellow stain), and neutrophil gelatinase-associated lipocalin (NGAL) to quantify kidney injury (FIG. 4D)."}, "Toll-like receptor 2": {"test_system": "Toll-like receptor 2", "assay": "Toll-like receptor suppression in CORM-401 perfused porcine DCD kidneys", "parameters": "species or system large male Landrace pig", "conditions": "200 μM CORM-401 perfused kidneys", "method": "as §1"}, "Toll-like receptor 4": {"test_system": "Toll-like receptor 4", "assay": "Toll-like receptor suppression in CORM-401 perfused porcine DCD kidneys", "parameters": "species or system large male Landrace pig", "conditions": "200 μM CORM-401 perfused kidneys", "method": "as §1"}, "Toll-like receptor 6": {"test_system": "Toll-like receptor 6", "assay": "Toll-like receptor suppression in CORM-401 perfused porcine DCD kidneys", "parameters": "species or system large male Landrace pig", "conditions": "200 μM CORM-401 perfused kidneys", "method": "as §1"}, "Pig kidneys": {"test_system": "Pig kidneys", "assay": "Ex vivo subnormothermic (22° C.) pulsatile perfusion of pig kidneys with HBOC-201 versus blood or static cold storage", "method": "Methods: Pig kidneys (n=5) were procured after 30 minutes of warm in situ ischemia by cross-clamping the renal arteries. Organs were flushed with histidine tryptophan ketoglutarate solution and subjected to static cold storage or pulsatile perfusion with an RM3 pump at 22° C. for 4 hours with HBOC-201 and blood. Thereafter, kidneys were reperfused with normothermic (37° C.) oxygenated blood for 4 hours. Blood and urine were subjected to biochemical analysis. Total urine output, urinary protein, albumin/creatinine ratio, flow rate, resistance were measured. Acute tubular necrosis, apoptosis, urinary kidney damage markers, neutrophil gelatinase-associated lipocalin 1, and interleukin 6 were also assessed."}, "[1]": {"conditions": "200 μM, 4 h perfusion at 4° C. in UW solution, 10 h blood reperfusion, vs inactive CORM-401"}, "[2]": {"conditions": "22° C. 4 hours perfusion, 4 hours reperfusion, as with blood"}, "[3]": {"conditions": "22° C. 4 hours perfusion, 4 hours reperfusion, versus cold storage"}}}
{"compound": "CN(CC(=O)O)C(=S)[S-].[C-]#[O+].[C-]#[O+].[C-]#[O+].[C-]#[O+].[Mn]", "note": "[CORM-401]", "values": [{"measurement": "intrarenal hemorrhage and vascular dotting during reperfusion", "setting": "porcine DCD kidneys; 200 μM, 4 h perfusion at 4° C. in UW solution, 10 h blood reperfusion", "value": "prevented"}, {"measurement": "ATN (acute tubular necrosis) in histopathologic sections", "setting": "porcine DCD kidneys; [1]", "value": "reduced"}, {"measurement": "dUTP nick end labeling staining in histopathologic sections", "setting": "porcine DCD kidneys; [1]", "value": "reduced"}, {"measurement": "kidney damage markers (kidney damage marker-1 and neutrophil gelatinase-associated lipocalin)", "setting": "porcine DCD kidneys; [1]", "value": "attenuated"}, {"measurement": "urinary protein excretion", "setting": "porcine DCD kidneys; 200 μM, 4 h perfusion at 4° C. in University of Wisconsin solution, 10 h normothermic blood reperfusion, vs inactive CORM-401", "value": "reduced"}, {"measurement": "injury in porcine DCD kidneys", "setting": "porcine DCD kidneys; 1 h warm ischemia, perfusion with UW solution, 10 h blood reperfusion at 37° C.", "value": "reduced injury"}, {"measurement": "Toll-like receptor 2 suppression (anti-inflammatory action)", "setting": "Toll-like receptor 2", "value": "suppressing"}, {"measurement": "Toll-like receptor 4 suppression (anti-inflammatory action)", "setting": "Toll-like receptor 4", "value": "suppressing"}, {"measurement": "Toll-like receptor 6 suppression (anti-inflammatory action)", "setting": "Toll-like receptor 6", "value": "suppressing"}]}
{"compound": "HBOC-201: acellular hemoglobin-based oxygen carrier; blood free oxygen carrier (Hemopure)", "values": [{"measurement": "renal blood flow and function upon reperfusion", "setting": "Pig kidneys; 22° C. 4 hours perfusion, 4 hours reperfusion with 37° C. oxygenated blood, compared with blood-treated kidneys", "value": "similar"}, {"measurement": "IL6 levels", "setting": "Pig kidneys; [2]", "value": "similarly reduced"}, {"measurement": "Urinary damage markers", "setting": "Pig kidneys; [2]", "value": "similarly reduced"}, {"measurement": "TUNEL staining (apoptosis)", "setting": "Pig kidneys; [3]", "value": "vastly reduced"}, {"measurement": "acute tubular necrosis scores", "setting": "Pig kidneys; [3]", "value": "vastly reduced"}, {"measurement": "TUNEL staining (apoptosis)", "setting": "Pig kidneys; 22° C. 4 hours perfusion, 4 hours reperfusion, versus cold storage, listed as HBOC", "value": "reduces apoptosis"}, {"measurement": "tissues oxygen saturation", "setting": "Pig kidneys; 22° C., 4 hours perfusion, compared with blood", "value": "equivalent to blood"}]}
